Experimental data: article PMC8550792, “Evolution of kinase polypharmacology across HSP90 drug discovery” (Cell Chemical Biology, 2021)
Where two headings read alike, the source gives them in different places.

How the values were obtained:
Type in all cases: biochemical
PDK2/PDHK2 = biological target: T1, PDK2/PDHK2 (Homo sapiens, UniProt Q15119); assay: HotSpot in vitro kinase radiometric assay; conditions: PDK2/PDHK2; ATP 15 uM; read-out: IC50 (M) Control Cmpd
T1 construct: purchased Reaction Biology (HotSpot contract assay)
Experimental: (§1) Accordingly, we selected five additional representative HSP90 inhibitors, at least one from each chemical class, including both synthetic inhibitors and natural products. […]
(§2) This radioisotope binding assay was designed to directly detect the true product without the use of modified substrates, coupling enzymes, or detection antibodies thus enabling to directly measure inhibition of catalytic activity. Test or control compounds were incubated with kinase, substrate, cofactors, and radioisotope-labeled ATP (32P-ɣ-ATP or 33P-ɣ-ATP). The reaction mixtures were then spotted onto filter papers, which bind the radioisotope-labeled catalytic product.

PDK4/PDKH4 = biological target: T2, PDK4/PDKH4 (Homo sapiens, UniProt Q16654); assay: HotSpot in vitro kinase radiometric assay; conditions: PDK4/PDKH4; ATP 30 uM; read-out: IC50 (M) Control Cmpd
T2 construct: purchased Reaction Biology (HotSpot contract assay)
T2 sequence (Q16654 whole entry): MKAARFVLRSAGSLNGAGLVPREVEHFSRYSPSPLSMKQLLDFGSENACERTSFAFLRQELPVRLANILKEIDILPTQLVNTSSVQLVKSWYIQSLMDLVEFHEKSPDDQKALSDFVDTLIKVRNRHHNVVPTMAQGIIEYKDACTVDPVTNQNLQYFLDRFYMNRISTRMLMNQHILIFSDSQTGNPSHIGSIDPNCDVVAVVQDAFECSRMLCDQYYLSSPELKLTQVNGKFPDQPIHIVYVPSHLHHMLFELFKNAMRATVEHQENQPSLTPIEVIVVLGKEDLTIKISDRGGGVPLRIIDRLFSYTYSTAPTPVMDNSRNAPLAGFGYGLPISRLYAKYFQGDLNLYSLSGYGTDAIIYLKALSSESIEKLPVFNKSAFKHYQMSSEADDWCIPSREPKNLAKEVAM
Experimental: as §1, §2

382 unique human kinases [1] = biological target: T3, 382 unique human kinases (Homo sapiens, UniProt Q9Y572); assay: biochemical; conditions: RIPK3; [ATP] 2.5 µM; read-out: Control Compound IC50*
T3 construct: purchased Reaction Biology (HotSpot contract assay)
T3 sequence (Q9Y572 whole entry): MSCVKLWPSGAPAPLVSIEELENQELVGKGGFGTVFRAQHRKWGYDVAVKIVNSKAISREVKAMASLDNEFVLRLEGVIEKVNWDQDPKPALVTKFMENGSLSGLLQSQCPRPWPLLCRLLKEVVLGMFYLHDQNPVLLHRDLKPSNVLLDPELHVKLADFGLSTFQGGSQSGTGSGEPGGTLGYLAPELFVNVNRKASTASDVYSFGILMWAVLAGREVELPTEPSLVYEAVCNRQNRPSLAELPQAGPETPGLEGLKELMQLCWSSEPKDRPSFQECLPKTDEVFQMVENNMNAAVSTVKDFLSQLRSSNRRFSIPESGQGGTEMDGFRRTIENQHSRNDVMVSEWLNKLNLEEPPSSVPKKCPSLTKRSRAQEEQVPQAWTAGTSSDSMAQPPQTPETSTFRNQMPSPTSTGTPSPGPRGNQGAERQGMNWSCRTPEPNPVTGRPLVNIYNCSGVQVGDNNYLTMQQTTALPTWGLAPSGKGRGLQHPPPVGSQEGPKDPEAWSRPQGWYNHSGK

382 unique human kinases [2] = assay: biochemical; conditions: read-out: Control Compound IC50*
382 unique human kinases [3] = biological target: T4, 382 unique human kinases (Homo sapiens, UniProt Q9NYL2); assay: biochemical; conditions: ZAK/MLTK; [ATP] 50 µM; read-out: Control Compound IC50*
T4 construct: purchased Reaction Biology (HotSpot contract assay)
T4 sequence (Q9NYL2 whole entry): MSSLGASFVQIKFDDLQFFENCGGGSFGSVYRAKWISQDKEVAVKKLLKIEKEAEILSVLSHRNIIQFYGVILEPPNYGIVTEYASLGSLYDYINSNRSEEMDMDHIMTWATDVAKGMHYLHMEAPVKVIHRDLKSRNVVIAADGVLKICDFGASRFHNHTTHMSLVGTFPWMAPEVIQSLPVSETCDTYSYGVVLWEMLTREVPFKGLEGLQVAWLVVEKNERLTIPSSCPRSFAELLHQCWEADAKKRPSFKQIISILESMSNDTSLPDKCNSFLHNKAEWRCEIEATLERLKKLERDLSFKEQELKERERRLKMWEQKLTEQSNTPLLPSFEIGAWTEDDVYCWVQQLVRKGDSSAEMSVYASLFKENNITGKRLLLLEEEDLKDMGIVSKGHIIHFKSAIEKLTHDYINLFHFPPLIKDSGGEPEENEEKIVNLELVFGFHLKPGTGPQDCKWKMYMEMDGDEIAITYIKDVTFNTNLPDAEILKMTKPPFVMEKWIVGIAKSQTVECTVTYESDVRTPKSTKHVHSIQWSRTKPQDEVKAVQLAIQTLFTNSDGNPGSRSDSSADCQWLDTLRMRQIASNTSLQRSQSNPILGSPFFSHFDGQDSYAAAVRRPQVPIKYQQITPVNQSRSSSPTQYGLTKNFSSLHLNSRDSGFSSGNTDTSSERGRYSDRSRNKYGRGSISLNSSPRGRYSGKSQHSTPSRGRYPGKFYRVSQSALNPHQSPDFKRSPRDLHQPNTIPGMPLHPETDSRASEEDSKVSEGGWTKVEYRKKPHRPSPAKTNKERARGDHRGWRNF

382 unique human kinases [4] = biological target: T5, 382 unique human kinases (Homo sapiens, UniProt Q15119); assay: biochemical; conditions: PDK2/PDHK2; [ATP] 15 µM; read-out: Control Compound IC50*
T5 construct: purchased Reaction Biology (HotSpot contract assay)

382 unique human kinases [5] = biological target: T6, 382 unique human kinases (Homo sapiens, UniProt Q16654); assay: biochemical; conditions: PDK4/PDKH4; [ATP] 30 µM; read-out: Control Compound IC50*
T6 construct: purchased Reaction Biology (HotSpot contract assay)
T6 sequence (Q16654 whole entry): as the sequence (Q16654 whole entry) above

382 unique human kinases [6] = biological target: T7, 382 unique human kinases (Homo sapiens, UniProt Q15118); assay: biochemical; conditions: PDK1/PDHK1; [ATP] 50 µM; read-out: Control Compound IC50*
T7 construct: purchased Reaction Biology (HotSpot contract assay)
T7 sequence (Q15118 29-436): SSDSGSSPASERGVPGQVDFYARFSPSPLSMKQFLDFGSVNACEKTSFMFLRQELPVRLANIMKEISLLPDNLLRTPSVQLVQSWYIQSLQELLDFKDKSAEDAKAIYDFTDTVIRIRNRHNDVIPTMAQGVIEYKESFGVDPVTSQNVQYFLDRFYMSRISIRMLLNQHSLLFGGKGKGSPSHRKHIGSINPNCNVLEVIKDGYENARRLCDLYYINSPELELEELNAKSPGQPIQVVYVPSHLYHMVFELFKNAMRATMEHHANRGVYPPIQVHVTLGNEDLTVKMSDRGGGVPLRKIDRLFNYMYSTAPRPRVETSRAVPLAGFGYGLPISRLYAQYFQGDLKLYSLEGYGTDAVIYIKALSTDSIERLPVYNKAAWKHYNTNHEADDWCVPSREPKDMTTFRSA

382 unique human kinases [7] = biological target: T8, 382 unique human kinases (Homo sapiens, UniProt P68400); assay: biochemical; conditions: CK2a; read-out: Control Compound IC50*
T8 construct: purchased Reaction Biology (HotSpot contract assay)
T8 sequence (P68400 whole entry): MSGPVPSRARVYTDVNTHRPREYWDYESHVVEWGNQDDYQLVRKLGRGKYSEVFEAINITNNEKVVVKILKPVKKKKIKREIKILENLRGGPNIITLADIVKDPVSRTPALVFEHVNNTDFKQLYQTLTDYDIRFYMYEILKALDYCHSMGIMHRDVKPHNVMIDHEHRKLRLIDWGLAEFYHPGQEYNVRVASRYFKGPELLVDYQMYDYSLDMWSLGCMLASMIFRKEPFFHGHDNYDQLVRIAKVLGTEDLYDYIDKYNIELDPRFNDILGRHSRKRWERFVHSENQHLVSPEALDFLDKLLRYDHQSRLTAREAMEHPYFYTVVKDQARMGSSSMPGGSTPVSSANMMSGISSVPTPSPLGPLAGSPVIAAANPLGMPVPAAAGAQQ

382 unique human kinases [8] = biological target: T9, 382 unique human kinases (Homo sapiens, UniProt Q15120); assay: biochemical; conditions: PDK3/PDHK3; [ATP] 30 µM; read-out: Control Compound IC50*
T9 construct: purchased Reaction Biology (HotSpot contract assay)
T9 sequence (Q15120 whole entry): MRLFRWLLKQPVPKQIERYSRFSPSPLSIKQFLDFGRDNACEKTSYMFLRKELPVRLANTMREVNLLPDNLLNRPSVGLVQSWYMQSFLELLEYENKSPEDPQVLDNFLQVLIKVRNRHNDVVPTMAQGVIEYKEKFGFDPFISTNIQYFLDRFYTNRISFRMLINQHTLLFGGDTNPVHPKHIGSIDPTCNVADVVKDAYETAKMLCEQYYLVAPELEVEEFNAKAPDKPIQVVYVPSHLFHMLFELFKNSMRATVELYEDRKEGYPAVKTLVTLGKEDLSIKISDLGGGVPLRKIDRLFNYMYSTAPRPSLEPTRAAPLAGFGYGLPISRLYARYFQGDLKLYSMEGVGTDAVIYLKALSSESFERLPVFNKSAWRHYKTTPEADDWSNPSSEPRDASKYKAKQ

382 unique human kinases [9] = biological target: T10, 382 unique human kinases (Homo sapiens, UniProt P10398); assay: biochemical; conditions: ARAF; read-out: Control Compound IC50*
T10 construct: purchased Reaction Biology (HotSpot contract assay)
T10 sequence (P10398 1-606): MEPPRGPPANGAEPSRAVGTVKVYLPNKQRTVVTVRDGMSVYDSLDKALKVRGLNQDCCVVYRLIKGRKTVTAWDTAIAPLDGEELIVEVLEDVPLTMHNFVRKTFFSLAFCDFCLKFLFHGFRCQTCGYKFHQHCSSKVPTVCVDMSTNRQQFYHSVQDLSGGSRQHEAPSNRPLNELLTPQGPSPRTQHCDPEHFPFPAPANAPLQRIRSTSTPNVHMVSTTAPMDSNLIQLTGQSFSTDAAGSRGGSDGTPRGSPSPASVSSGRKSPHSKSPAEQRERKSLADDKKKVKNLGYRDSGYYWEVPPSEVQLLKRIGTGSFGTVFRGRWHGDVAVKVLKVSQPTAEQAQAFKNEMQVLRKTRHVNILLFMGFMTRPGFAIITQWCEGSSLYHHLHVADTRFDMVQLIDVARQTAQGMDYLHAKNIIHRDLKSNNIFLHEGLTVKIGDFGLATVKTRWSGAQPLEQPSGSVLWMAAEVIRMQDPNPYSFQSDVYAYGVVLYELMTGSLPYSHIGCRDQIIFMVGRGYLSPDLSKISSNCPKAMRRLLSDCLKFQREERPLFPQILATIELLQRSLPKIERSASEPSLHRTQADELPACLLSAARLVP

382 unique human kinases [10] = biological target: T11, 382 unique human kinases (Homo sapiens, UniProt Q9NR20); assay: biochemical; conditions: DYRK4; read-out: Control Compound IC50*
T11 construct: purchased Reaction Biology (HotSpot contract assay)
T11 sequence (Q9NR20 1-520): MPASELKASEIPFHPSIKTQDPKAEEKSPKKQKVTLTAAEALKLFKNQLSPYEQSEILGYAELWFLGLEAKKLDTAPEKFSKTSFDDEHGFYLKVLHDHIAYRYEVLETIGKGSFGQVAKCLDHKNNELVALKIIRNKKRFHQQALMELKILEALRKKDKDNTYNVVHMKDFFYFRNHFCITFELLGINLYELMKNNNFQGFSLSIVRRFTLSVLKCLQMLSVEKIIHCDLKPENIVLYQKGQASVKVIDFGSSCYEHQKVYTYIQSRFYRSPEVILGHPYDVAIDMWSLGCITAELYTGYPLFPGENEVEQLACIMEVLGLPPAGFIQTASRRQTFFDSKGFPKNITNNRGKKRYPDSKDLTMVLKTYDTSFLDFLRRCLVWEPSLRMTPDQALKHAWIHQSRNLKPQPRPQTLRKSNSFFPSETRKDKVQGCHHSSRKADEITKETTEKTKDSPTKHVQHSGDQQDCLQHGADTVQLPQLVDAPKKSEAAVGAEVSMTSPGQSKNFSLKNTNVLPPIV

O=C1Nc2ccc(I)cc2/C1=C/c1cc(Br)c(O)c(Br)c1 [GW5074] showed an IC50 (PDK2/PDHK2) of 6.39e-06 M, an IC50 (PDK4/PDKH4) of 2.51e-06 M and an IC50 (382 unique human kinases [1]) of 1060 nM. For the same compound, the IC50 (382 unique human kinases [2]; BRAF (R506_K507insVLR)) was […], the IC50 (382 unique human kinases [2]; BRAF (T599_V600insT)) was […] and the IC50 (382 unique human kinases [2]; BRAF (d485-489/P490Y)) was […]. It also gave an IC50 (382 unique human kinases [2]; BRAF-FAM131B (Fex2Bex9)) of […], an IC50 (382 unique human kinases [2]; BRAF-KIAA1549 (Kex15Bex9)) of […] and an IC50 (382 unique human kinases [2]; BRAF-KIAA1549 (Kex16Bex9)) of […]. For the same compound, the IC50 (382 unique human kinases [2]; BRAF-SRGAP3 (Sex12Bex9)) was […], the IC50 (382 unique human kinases [3]) was 2620 nM and the IC50 (382 unique human kinases [4]) was 6610 nM. It also gave an IC50 (382 unique human kinases [5]) of 1720 nM, an IC50 (382 unique human kinases [6]) of 32200 nM and an IC50 (382 unique human kinases [7]) of 398 nM. For the same compound, the IC50 (382 unique human kinases [8]) was 12100 nM, the IC50 (382 unique human kinases [9]) was 14 nM and the IC50 (382 unique human kinases [10]) was 1880 nM.
